Anti-hyperalgesic action and ED50 data for 1 compound are collected here from US6451857B1, “Analgesic compositions comprising anti-epileptic compounds and methods of using same” (Warner-Lambert Company, priority 1999, dated 2002).

The assay concerns carrageenan-induced thermal hyperalgesia. The assay can be described thus: Carrageenan rat footpad thermal hyperalgesia test (Hargreaves test). It is filed as in vivo.

Source text: The aim of this experiment was to characterize the antinociceptive and anti-inflammatory effects of gabapentin administered in combination with a prototypic NSAID in the rat. […] This assay utilizes an extract of seaweed (carrageenan) that, when injected into the footpad of test animals, causes a sterile inflammation, thereby lowering the pain threshold.
Male Sprague-Dawley rats (200-250 g, Sasco Laboratories) were used. Rats were group housed 5/cage on a 12-hour light:dark cycle with free access to food and water. Rats received only one dose of a drug or drug combination. All drugs were administered orally by gavage.
Dose-effect curves were first determined for (1) gabapentin by itself and (2) a prototypic NSAID (e.g., naproxen) by itself. The ED50 value and 95% confidence limits of each agent was determined, as was the time to peak effect. […]
Carrageenan-induced thermal hyperalpesia: Rats were acclimated to a testing chamber whose glass floor was maintained at 25° C. Thirty minutes later, a high intensity beam of light was focused through the glass on the ventral surface of each hindpaw, and the latency to reflex withdrawal of the paw from the light beam was measured to the nearest 0.1 second. […] Response latencies for the ipsilateral and contralateral hindpaws were then re-determined 15, 30, 45, 60, 90 and 120 minutes later. […]
Data were expressed as the mean ±SEM. […]

`COc1ccc2cc([C@H](C)C(=O)O)ccc2c1` [Naproxen sodium, naproxen sodium]: for the setting “PO, gabapentin 3-100 mg/kg, naproxen sodium 0.3-30 mg/kg, combinations in fixed ratio”, the anti-hyperalgesic action result was “caused anti-hyperalgesic actions”. For the same compound, under “Rattus norvegicus, 2 h, single drug, oral gavage, male Sprague-Dawley rats, data 120 min after dosing, 95% confidence limits in parentheses”, the ED50 (commonly the dose that gives a 50% effect, or the effect in half of the subjects) is 0.36 mg/kg.
